Peptide text beside a SMILES is read from it.
Columns and labels:
NB2a/d1 cells = test: Neurite sprouting assay (RSE), NB2a/d1 cells; format: cell-based, mouse; details: 24 hrs in culture
Method: (§1) Two cell lines were used. The mouse neuroblastoma cell line NB2a/dl was grown to confluency in P/100 plastic plates in the presence of Delbecco's medium with 10% fetal calf serum at 36.5° C. in a 5% CO2 atmosphere. Shea, T. B. et al., Dev. Brain Res., 21:307-314 (1985). An adrenergic mouse cell line based on PC12 pheochromocytoma cells was grown on collagen-coated culture plates using 85% RPMI 1640 and 10% heat-inactivated horse serum as the growth medium. Greene, L. A. et al., Proc. Natl. Acad. Sci. USA, 73:2424-2428 (1976). Cultures were grown in P-100 plates from an initial plating of 10^5 cells/ml under sterile conditions using 10 ml of incubation medium. Experimental cultures received a given concentration of protein fragment in 1 ml of serum-free medium. Control cultures received no fragment. Equal numbers of test and control plates were incubated at 35.5° C. in a 95%/5% air/CO2 humified atmosphere, and then examined for neurite growth patterns at 18, 24 and 48 hr after the plating in a phase microscope at a magnification of 100 or 200 ×, as specified.
The test to determine the degree of sprouting was carried out blind to determine (1) the total number of cells present in a given field of observation and (2) the percent of these that have zero and one or two or more process. Twelve microscope fields, each containing 50-100 cells, were randomly selected in each plate and cells counted according to the categories described above. The data for 12 fields in each of two plates for each added protein fragment were combined to obtain an analysis of the percent sprouting (i.e. the % of cells that have one or more processes after 24 hr in culture) for each protein fragment. The ratio, % sprouting in experimental cultures/% sprouting in control cultures, is an index of the "relative sprouting effect" (RSE) of a protein fragment.

NB2a/dl cells = test: Neurite elongation assay (REE), NB2a/dl cells; format: cell-based, mouse; details: Conc. 1000 μM, 24 hrs in culture
Method: as §1, with “Equal numbers of test and control plates were incubated at 35.5° C. in a 95%/5% air/CO2 humified atmosphere, and then examined for neurite growth patterns at 18, 24 and 48 hr after the plating in a phase microscope at a magnification of 100 or 200 ×, as specified.” left out
(§2) In each of the twelve microscope fields, the length of nerve cell processes (minimum length: 0.5 times the cell body length) was also measured to determine the percentage of nerve elongation after 24 hr. The percentage of total cells that developed a longest process equal to its cell body length was calculated according to the formula in Table V, supra. […]

PC12 cells [1] = test: Neurite sprouting assay (RSE), PC12 cells; format: cell-based, mouse; details: Conc. .07 μM, 24 hrs in culture
Method: as §1, with “Equal numbers of test and control plates were incubated at 35.5° C. in a 95%/5% air/CO2 humified atmosphere, and then examined for neurite growth patterns at 18, 24 and 48 hr after the plating in a phase microscope at a magnification of 100 or 200 ×, as specified.” left out
The test to determine the degree of sprouting was carried out blind to determine (1) the total number of cells present in a given field of observation and (2) the percent of these that have zero and one or two or more process. Twelve microscope fields, each containing 50-100 cells, were randomly selected in each plate and cells counted according to the categories described above. […]

PC12 cells [2] = test: Neurite elongation assay (REE), PC12 cells; format: cell-based, mouse
Method: as §1, with “Equal numbers of test and control plates were incubated at 35.5° C. in a 95%/5% air/CO2 humified atmosphere, and then examined for neurite growth patterns at 18, 24 and 48 hr after the plating in a phase microscope at a magnification of 100 or 200 ×, as specified.” left out
as §2

Solubility observations = format: physicochemical; details: physiological pH values

Compound: CCCC(=O)Nc1ncnc2c1ncn2[C@@H]1O[C@@H]2COP(=O)(O)O[C@H]2[C@H]1OC(=O)CCC [dibutyryl cyclic AMP, reference compound]
- RSE (relative sprouting effect) (NB2a/d1 cells; Conc. 1000 (μm)): 1.7
- REE (neurite elongation) (NB2a/dl cells): 2.58

Compound: Nerve growth factor
- RSE (relative sprouting effect) (NB2a/d1 cells; Conc. 0.03 (μm)): 1.76 ± .034
- RSE (relative sprouting effect) (NB2a/d1 cells; Conc. .07 (μm)): 1.76 ± .07
- RSE (relative sprouting effect) (PC12 cells [1]): 2.9
- REE (neurite elongation) (PC12 cells [2]; Conc. .03 μM, 24 hrs in culture): 3.30
- effect on neurite elongation, result in words (PC12 cells [2]; Table IV): most significant effects

Compound: CC(C)C[C@H](NC(=O)[C@@H](NC(=O)[C@H](CCC(=O)O)NC(=O)[C@H](CCCCN)NC(=O)[C@@H](N)CCCCN)[C@@H](C)O)C(=O)N[C@@H](CCC(N)=O)C(=O)N[C@@H](Cc1ccccc1)C(=O)N[C@@H](CCCNC(=N)N)C(=O)O [compound 8933, Lys Lys Glu Thr Leu Gln Phe Arg] (H-KKETLQFR-OH)
- solubility in saline (Solubility observations): highly soluble

— patent US5545719A, “Nerve growth peptides” (Neuromedica, Inc., priority 1994, dated 1996)
